According to article PMC5438973 (Frontiers in Psychiatry, 2017):
Read-outs that look alike come from different tables or passages of the source.

Key:
Male, Wistar rats [1] = assay: Schedule-induced polydipsia; type: in vivo, rat; details: for Effect on excessive drinking / amount of water consumed / Effect on number of responses emitted (lever pressing for food): acute dosing; for Effect of antagonist on the decrease in excessive water consumption produced by CPD 1: CPD 1 5.6 mg/kg
Description: Rats were used in these experiments as they have been utilized for such studies in the past with great success in generating significant polydipsia ([16]). Male, Wistar rats were singly housed, and maintained at approximately 85% of their free-feeding weights with free access to water. Twelve adult male, Wistar rats (Harlan Industries, Indianapolis, IN, USA) were used. They were allowed to acclimate to our vivarium for at least 3 days prior to testing. They were 2 months old at the start of the experiments that lasted approximately 6–8 months and were without explicit experimental experience prior to this study. The rats were singly housed, and maintained at approximately 86–91% of their free-feeding weights with post session supplemental feeding of Lab Diet #5001 for rodents (PMI Nutrition International Inc., St. Louis, MO, USA). Body weights were corrected for the normal growth curve of Wistar rats such that actual body weight of each rat increased over the experimental time frame. Water was available continuously in the individual home cages. Rats were inspected daily 7 days/week by experimenters and veterinary staff.
The experiments were conducted using operant behavior test chambers ENV-007 (Med Associates Inc., Georgia, VT, USA), 30.5 cm × 24.1 cm × 29.2 cm. The test chambers were contained within light and sound attenuating shells. A food trough was mounted 2 cm off the grid floor on the centerline. Two response levers were centered 8 cm off the centerline and 7 cm off the grid floor. Three lights were located above each response lever at 15 cm off the grid floor. All events were controlled and lever-press data were recorded by a Compaq computer running MED-PC Version IV (Med Associates Inc., Georgia, VT, USA). The water bottle located within each chamber was weighed before and after experimental sessions.
Experimental sessions lasted 90 min. Test compounds or drug vehicle were administered on Tuesdays and Fridays, given the stability of performance (within 15% variation of the individual animal). Non-injection, control performances were on Thursdays. […] Dose-effect curves and drug interaction data were created by repeated testing in groups of five to eight rats. Test compounds were administered as described in figure legends. The effects of the compound are expressed as a percent of control for each individual animal. Results were analyzed by ANOVA followed by Dunnett’s multiple comparison (p < 0.05).
Thus, in keeping with the guidelines of animal care and use followed here, we utilized the minimum number of animals required for signal detection.

Male, NIH Swiss mice [2] = assay: Rotarod performance; type: in vivo, mouse
Description: Mice were not pretrained on this task.

Male, NIH Swiss mice [3] = details: 12/dose group
Male, NIH Swiss mice [4] = details: mouse, in vivo, 60 min
Male, NIH Swiss mice [5] = assay: Nestlet-shredding; details: 8/dose group
Male, Wistar rats [6] = assay: Isoproterenol-induced drinking; type: in vivo, rat; details: (±)-isoproterenol 30 μg/kg, s.c.
Protocol: Male, Wistar rats (different from those rats used in the schedule-induced polydipsia studies) were used. They were 331 ± 11 g at the initiation of this study. Compound 1 (5.6 mg/kg, s.c.) was evaluated for its ability to reduce drinking. (±)-isoproterenol (30 μg/kg, s.c.) was given to induce drinking (n = 5–20 rat/group). Ten minutes after vehicle or (±)-isoproterenol injection, rats were given either vehicle or Compound 1 and a 60 min session began in which the rats in individual housing cages were given access to water 20 min after the second injection. The weight of the water bottle before and after the 60 min period was measured to the nearest 0.1 g. After the experiment, the animals were returned to their living cages with continuous access to food and water.

h5-HT2A = biological target: T1, h5-HT2A (Homo sapiens, UniProt P28223); assay: GTP-γ-[35S] functional assay (SPA), AV12 cells; type: biochemical; details: GTPgs functional assay, human recombinant cell line
T1 construct: expressed in transfected cells; host or cells: AV12 cells
Description: (§1) 5-HT2 receptors are functionally coupled to specific G-proteins. Agonist activation of 5-HT2 G-protein coupled receptors results in the release of GDP from alpha-subunit (G alpha q or G alpha i) of the G-protein and the subsequent binding of GTP. The binding of the stable analog GTP-g-[^35S] is an indicator of receptor activation. Human cloned 5-HT2A, −2B, and −2C receptors were expressed in AV12 cells. GTP-g-[^35S] nucleotide exchange scintillation proximity assay (SPA) was used to measure binding as previously described ([14]).

h5-HT2B = biological target: T2, h5-HT2B (Homo sapiens, UniProt P41595); assay: GTP-γ-[35S] functional assay (SPA), AV12 cells; type: biochemical; details: GTPgs functional assay, human recombinant cell line
T2 construct: expressed in transfected cells; host or cells: AV12 cells
Description: as §1

h5-HT2C = biological target: T3, h5-HT2C (Homo sapiens, UniProt P28335); assay: GTP-γ-[35S] functional assay (SPA), AV12 cells; type: biochemical; details: GTPgs functional assay, human recombinant cell line
T3 construct: expressed in transfected cells; host or cells: AV12 cells
Description: as §1

Male, NIH Swiss mice [7] = assay: Locomotor activity; details: 12/dose group
[8] = fluoxetine 30 mg/kg with SB-242084 3 mg/kg

T3 sequence (P28335 33-458): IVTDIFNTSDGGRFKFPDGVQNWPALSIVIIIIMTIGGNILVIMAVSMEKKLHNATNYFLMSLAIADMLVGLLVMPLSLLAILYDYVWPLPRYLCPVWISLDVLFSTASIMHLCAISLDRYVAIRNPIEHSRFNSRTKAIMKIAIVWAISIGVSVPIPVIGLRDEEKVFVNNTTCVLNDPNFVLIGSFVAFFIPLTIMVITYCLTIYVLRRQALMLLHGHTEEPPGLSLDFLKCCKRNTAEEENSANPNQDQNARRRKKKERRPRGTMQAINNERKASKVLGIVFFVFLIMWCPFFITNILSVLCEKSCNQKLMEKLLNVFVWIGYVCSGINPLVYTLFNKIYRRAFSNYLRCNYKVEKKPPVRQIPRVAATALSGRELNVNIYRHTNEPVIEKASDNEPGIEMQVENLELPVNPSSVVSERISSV
T2 sequence (P41595 whole entry): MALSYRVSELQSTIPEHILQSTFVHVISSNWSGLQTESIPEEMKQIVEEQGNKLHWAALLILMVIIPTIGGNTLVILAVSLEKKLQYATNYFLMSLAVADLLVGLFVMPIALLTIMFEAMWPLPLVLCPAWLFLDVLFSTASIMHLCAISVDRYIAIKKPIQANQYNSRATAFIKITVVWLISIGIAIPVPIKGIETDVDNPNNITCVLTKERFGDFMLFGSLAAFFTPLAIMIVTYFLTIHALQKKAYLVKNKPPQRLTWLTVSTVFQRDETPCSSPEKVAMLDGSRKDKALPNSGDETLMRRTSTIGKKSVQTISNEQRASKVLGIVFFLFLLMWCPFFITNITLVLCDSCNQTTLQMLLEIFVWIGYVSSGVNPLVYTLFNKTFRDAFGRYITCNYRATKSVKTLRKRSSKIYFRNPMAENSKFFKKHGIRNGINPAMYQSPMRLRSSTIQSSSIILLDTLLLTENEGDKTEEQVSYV
T1 sequence (P28223 whole entry): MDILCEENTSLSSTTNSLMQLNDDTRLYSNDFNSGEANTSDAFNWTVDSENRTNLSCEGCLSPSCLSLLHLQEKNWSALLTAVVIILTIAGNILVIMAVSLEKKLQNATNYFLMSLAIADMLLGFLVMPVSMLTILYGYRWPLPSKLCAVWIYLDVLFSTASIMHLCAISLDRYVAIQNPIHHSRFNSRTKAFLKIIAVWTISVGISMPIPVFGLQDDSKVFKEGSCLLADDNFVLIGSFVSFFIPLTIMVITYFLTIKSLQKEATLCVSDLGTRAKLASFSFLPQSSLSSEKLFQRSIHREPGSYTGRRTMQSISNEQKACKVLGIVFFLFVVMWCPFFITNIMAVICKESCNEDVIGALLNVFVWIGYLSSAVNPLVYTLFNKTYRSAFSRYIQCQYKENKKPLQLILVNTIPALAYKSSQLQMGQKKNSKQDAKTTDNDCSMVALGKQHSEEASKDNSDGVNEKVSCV

For `CN(C)CCCN1c2ccccc2CCc2ccc(Cl)cc21` [Clomipramine, clomipramine], the “Effect on excessive drinking / amount of water consumed” value (shortened to “Effect on excessive drinking / amount”) (Male, Wistar rats [1]; given alone) was “decreased” and the “Effect on number of responses emitted (lever pressing for food)” value (“Effect on number of responses emitted” for short) (Male, Wistar rats [1]; given alone) was “decreased”.

In the case of `C[C@H](N)Cc1ccccc1` [D-amphetamine], the “Effect on excessive drinking / amount” value (Male, Wistar rats [1]; given alone) is reported as “decreased” and the “Effect on number of responses emitted” value (Male, Wistar rats [1]; given alone) is reported as “increased”.

For `CNCCC(Oc1ccc(C(F)(F)F)cc1)c1ccccc1` (stereo not shown) [Fluoxetine, fluoxetine], the “Responses (Rsp) in percent of controls” value (Male, Wistar rats [1]; 10 mg/kg given alone) was 102.3% of controls, the “Water consumed (H2O) in percent of controls” value (Male, Wistar rats [1]; 10 mg/kg given alone) was 66.7% of controls and the “Responses (Rsp) in percent of controls” value (Male, Wistar rats [1]; 30 mg/kg, i.p., given alone) was 6% of controls. The “Water consumed (H2O) in percent of controls” value (Male, Wistar rats [1]; 30 mg/kg, i.p., given alone) was 8% of controls, the “Dose at which statistically significant reduction of excessive drinking was detected” value (Male, Wistar rats [1]; Dunnett p < 0.05) was 20 mg/kg and the “Dose at which statistically significant reduction of food-maintained responding was detected” value (Male, Wistar rats [1]; Dunnett p < 0.05) was 20 mg/kg. The “Water consumed (H2O) in percent of controls” value (Male, Wistar rats [1]; fluoxetine 10 mg/kg with SB-242084 3 mg/kg) was 99.2% of controls, the “Responses (Rsp) in percent of controls” value (Male, Wistar rats [1]; [8]) was 92.7% of controls and the “Water consumed (H2O) in percent of controls” value (Male, Wistar rats [1]; [8]) was 101.4% of controls. For the same compound, the “Rotarod, minimal effective dose” value (Male, NIH Swiss mice [2]; male, NIH Swiss, mouse, in vivo, 2 min) was >30 milligrams per kilogram, the “Marble-burying, minimal effective dose” value (Male, NIH Swiss mice [3]) was 10 milligrams per kilogram and the “Locomotor activity, minimal effective dose” value (“Locomotor activity” below) (Male, NIH Swiss mice [4]) was >10 milligrams per kilogram. For the same compound, the “Nestlet-shredding, minimal effective dose” value (Male, NIH Swiss mice [5]) was 10 milligrams per kilogram.

In the case of `CC(C)NCC(O)c1ccc(O)c(O)c1` (stereo not shown) [Isoproterenol, isoproterenol, reference compound], the “Increase of water consumption relative to vehicle-treated rats” value (Male, Wistar rats [6]) is reported as 432%.

For `COc1cccc([C@H](O)C2CCN(CCc3ccc(F)cc3)CC2)c1OC` [MDL100907, (R)-(2,3-dimethoxyphenyl)-[1-[2-(4-fluorophenyl)ethyl]-4-piperidyl]methanol], the “Effect of antagonist on the decrease in excessive water consumption produced by CPD 1” value (Male, Wistar rats [1]) was “did not significantly alter”.

With `CCCC(C)C1(CC)C(=O)NC(=O)NC1=O` (stereo not shown) [Pentobarbital, pentobarbital] the “Rotarod, minimal effective dose” value (Male, NIH Swiss mice [2]; mice, 12/dose group) was 5.6 milligrams per kilogram, the “Marble-burying, minimal effective dose” value (Male, NIH Swiss mice [3]) was >17 milligrams per kilogram and the “Nestlet-shredding, minimal effective dose” value (Male, NIH Swiss mice [5]) was 10 milligrams per kilogram.

`C[C@H](N)Cn1ccc2cc(F)c(Cl)cc21` [Ro 60-0175] gave an EC50 (h5-HT2A) of 0.13 ± 0.001 µM, an Emax (h5-HT2A) of 59 ± 1% and an EC50 (h5-HT2B) of 0.057 ± 0.001 µM. It also gave an Emax (h5-HT2B) of 58 ± 1%, an EC50 (h5-HT2C) of 0.0051 ± 0.001 µM and an Emax (h5-HT2C) of 104 ± 1%. For the same compound, the “Effect on excessive drinking / amount” value (Male, Wistar rats [1]; given alone) was “significantly decreased”, the “Effect on number of responses emitted” value (Male, Wistar rats [1]; given alone) was “significantly decreased” and the “Rotarod, minimal effective dose” value (Male, NIH Swiss mice [2]; mice, 12/dose group) was “greater than 1 milligrams per kilogram”. For the same compound, the “Rotarod, minimal effective dose” value (Male, NIH Swiss mice [2]; mice, 12/dose group, listed as RO 60-0175) was >10 milligrams per kilogram, the “Marble-burying, minimal effective dose” value (Male, NIH Swiss mice [3]) was 0.1 milligrams per kilogram and the “Nestlet-shredding, minimal effective dose” value (Male, NIH Swiss mice [5]) was “less than 1 milligrams per kilogram”. The “Nestlet-shredding, minimal effective dose” value (Male, NIH Swiss mice [5]; listed as RO 60-0175) was <1 milligrams per kilogram, the “Locomotor activity” value (Male, NIH Swiss mice [7]) was “greater than 10 milligrams per kilogram” and the “Locomotor activity” value (Male, NIH Swiss mice [7]; listed as RO 60-0175) was >1 milligrams per kilogram.

For `Cc1cc2c(cc1Cl)N(C(=O)Nc1ccc(Oc3cccnc3C)nc1)CC2` [SB242084, 6-chloro-5-methyl-N-{6-[(2-methylpyridin-3-yl)oxy]pyridin-3-yl}indoline-1-carboxamide], the “Responses in percent of control” value (Male, Wistar rats [1]; 3 mg/kg given alone) was 191.2% of controls, the “Water consumed (H2O) in percent of control” value (Male, Wistar rats [1]; 3 mg/kg given alone) was 112.1% of controls and the “Effect of antagonist on the decrease in excessive water consumption produced by CPD 1” value (Male, Wistar rats [1]) was “prevented”. For the same compound, the “Effect of antagonist on the effects of D-amphetamine” value (Male, Wistar rats [1]; SB242084 3 mg/kg, D-amphetamine 3 mg/kg) was “did not alter”, the “Effect of antagonist on the decreases in water consumption and response output produced by fluoxetine” value (Male, Wistar rats [1]; SB-242084 3 mg/kg, fluoxetine 30 mg/kg) was “significantly attenuated” and the “Effect on excessive drinking / amount” value (Male, Wistar rats [1]; given alone) was “did not significantly affect”. For the same compound, the “Effect on number of responses emitted” value (Male, Wistar rats [1]; given alone) was “increased”.

`Clc1cccc(N2CCNCC2)c1` [mCPP, meta-chlorophenylpiperazine, reference compound] was tested, and the Emax (h5-HT2A) was 88 ± 2%, the Emax (h5-HT2B) was 84 ± 2% and the Emax (h5-HT2C) was 99 ± 2%. For the same compound, the “Effect on excessive drinking / amount” value (Male, Wistar rats [1]; given alone) was “significantly decreased” and the “Effect on number of responses emitted” value (Male, Wistar rats [1]; given alone) was “significantly decreased”.
